Where “and” joins values, the source holds several entries; their conditions need not be identical. Equal entries are not always repeated.
What was measured:
[1] = solvent as listed per probe; cited from earlier work
[2] = UV-vis spectral properties / extinction coefficients in aqueous buffer; type: physicochemical; details: for ε at λmax / λmax: merocyanine dyes; for ε of long-wavelength band of probe / ε of short-wavelength band(s) of probe / λmax, long-wavelength band of probe / λmax, short-wavelength band(s) of probe: probe before addition of Cys, 25 mM HEPES pH 7.4
Experimental: Absorption spectra were recorded on a Cary 50 UV-vis spectrometer from Varian. All measurements were performed in 1 cm UV-vis disposable cuvettes (BRAND semi-micro) and air-equilibrated solutions at 25±0.1° C. A total assay volume of 1.0 mL was used for each measurement. UV-vis scan spectra were recorded using following parameters: average time 0.05 s; data interval 1 nm; scan rate 1200 nm/min; with base line correction.
(§1) Stock solutions of assayed compounds (2-5 mM) were prepared in H2O-DMSO (1:1), stored at −20° C., and diluted to 1.0 mM with buffer before use. The L-Cys stock solution (20.0 mM) was freshly prepared in buffer before the measurements. […]
For a measurement, 1000 μL of buffer and 1-50 μL of probe (1.0 mM) were mixed, and then transferred to a cuvette. Absorbance spectra (250-800 nm) were measured against a blank of the buffer. At least six concentrations of each compound were used to calculate extinction coefficients from the slope of probe concentration vs absorbance plots, using MS Excel software (Microsoft).

[3] = Cys-response screening by UV-vis (cleavage of acryloyl ester by excess Cys); details: 25 mM HEPES pH 7.4; for ε^Cys / λ^Cys: after excess Cys (100 μM), 37° C., 15 min; for SNR: from ε^Cys and ε^blank
Experimental: as §1
In the same manner, ε^Cys was determined from the solutions of probe reacted with an excess of Cys (100 μM). The reactions were performed at 37° C. (incubation time 15 min). Blank reactions were run without addition of Cys.
Spectra recorded in the presence of Cys confirmed a colorimetric response through the cleavage of acryloyl ester. […] Moreover, their spectral profiles were advantageously fulfilling the wavelength requirement for the Cys sensing application in Cedex system (340, 378, 409, 480, 512, 520, 552, 583, 629, 652, 659 and 800 nm).

[4] = Evaluation of stability (hydrolysis of probe in buffer, UV-vis); type: physicochemical; details: 25 mM HEPES pH 7.4, 15.6 μM, 5 h, ε from merocyanine analogues (LZ07: ε from Table 2)
Experimental: For a measurement, 1000 μL of buffer and 16 μL of probe (1.0 mM) were mixed, and then incubated at +4° C. and at +37° C. for 5 h. The resulting mixtures were transferred to a cuvette, and the absorbance (250-800 nm) was measured. Each measurement was done in triplicate.
[…] Solutions of each probe were monitored by UV-vis for 5 h.

SMILES: C=CC(=O)OC1=C(/C=C/C2=[N+](CCC)c3ccccc3C2(C)C)CCC/C1=C\C=C1\N(CCC)c2ccccc2C1(C)C
- Spectra: Probe [1]: 775 nm
- Spectra: With Cys [1]: 515 nm

SMILES: C=CC(=O)Oc1ccc2c(c1)Oc1cc(OC(=O)C=C)ccc1C21OC(=O)c2ccccc21
- Spectra: With Cys [1]: With Cys 490 nm

SMILES: C=CC(=O)Oc1ccc(/C=C/c2sc3ccccc3[n+]2CC)c2cccnc12
- Spectra: Probe [1]: 387 nm
- Spectra: With Cys [1]: 566 nm

SMILES: C=CC(=O)Oc1ccc2c(c1)OC1CCCC(=O)C1=C2 (centres unmarked)
- Spectra: With Cys [1]: 398 nm

SMILES: C=CC(=O)Oc1ccc2c(c1)OC1=C(/C=C/C3=[N+](C)c4ccccc4C3(C)C)CCCC1=C2
- Spectra: Probe [1]: 582 nm
- Spectra: With Cys [1]: 674 nm

SMILES: C=CC(=O)Oc1ccc(/C=C/c2cc[n+](C)cc2)cc1
- Spectra: Probe [1]: 335 nm
- Spectra: With Cys [1]: 372 nm

SMILES: C=CC(=O)Oc1ccc(/C=C/C2=CC(=C(C#N)C#N)c3ccccc3O2)cc1
- Spectra: Probe [1]: 381 nm
- Spectra: With Cys [1]: 557 nm

SMILES: C=CC(=O)Oc1ccc2c(c1)oc(=O)c1c(=O)oc3ccccc3c12
- Spectra: Probe [1]: 350 nm
- Spectra: With Cys [1]: 445 nm

SMILES: C=CC(=O)Oc1ccc2cc(/C=C/C3=[N+](C)c4c(ccc5ccccc45)C3(C)C)ccc2c1
- Spectra: With Cys [1]: With Cys 460 nm

SMILES: C=CC(=O)Oc1ccc2c(c1)Oc1c(ccc3oc(=O)c(C(=O)OCC)cc13)C21OC(=O)c2ccccc21 (centres unmarked)
- Spectra: Probe [1]: 332 nm
- Spectra: With Cys [1]: 450 nm

SMILES: C=CC(=O)Oc1ccc2cc(/C=C/C3=[N+](C)c4ccccc4C3(C)C)ccc2c1
- Spectra: Probe [1]: 409 nm
- Spectra: With Cys [1]: 448 nm

SMILES: C=CC(=O)Oc1ccc(/C=C/C(=O)/C=C(O)/C=C/c2ccc(OC(=O)C=C)c(OC)c2)cc1OC
- Spectra: Probe [1]: 400 nm
- Spectra: With Cys [1]: 427 nm

SMILES: C=CC(=O)Oc1cccc2c1C(=O)N(Cc1cccc[n+]1CC)C2=O
- Spectra: Probe [1]: 360 nm
- Spectra: With Cys [1]: 400 nm

SMILES: C=CC(=O)Oc1ccc2c(c1)OC1=C(/C=C/C3CC(=C(C#N)C#N)c4ccccc4O3)CCCC1=C2 (centres unmarked)
- Spectra: Probe [1]: 550 nm
- Spectra: With Cys [1]: 600 nm

SMILES: CC1(C)C(/C=C/c2ccc(O)cc2)=[N+](CCCCS(=O)(=O)[O-])c2ccccc21 [LZ04, reference compound]
- ε at λmax ([2]; 25 mM HEPES pH 7.4, 1-24 μM): 36.6 mM⁻¹ cm⁻¹
- λmax ([2]; 25 mM HEPES pH 7.4, 1-24 μM): 527 nm
- ε at λmax ([2]; same buffer at pH 8.0): 45.6 mM⁻¹ cm⁻¹
- λmax ([2]; same buffer at pH 8.0): 527 nm

SMILES: C[N+]1=C(/C=C/c2ccc(O)cc2)C(C)(C)c2ccccc21.[I-] [LZ06, reference compound]
- ε at λmax ([2]; 25 mM HEPES pH 7.4, 1-24 μM): 27 to 37 mM⁻¹ cm⁻¹
- λmax ([2]; 25 mM HEPES pH 7.4, 1-24 μM): 520 nm
- ε at λmax ([2]; same buffer at pH 8.0): 37 to 53 mM⁻¹ cm⁻¹
- λmax ([2]; same buffer at pH 8.0): 520 nm

SMILES: Cc1cc(/C=C/C2=[N+](CCCCS(=O)(=O)[O-])c3ccccc3C2(C)C)cc(C)c1O [MF51]
- ε at λmax ([2]; 25 mM HEPES pH 7.4, 1-24 μM): 73.9 mM⁻¹ cm⁻¹
- λmax ([2]; 25 mM HEPES pH 7.4, 1-24 μM): 550 nm

SMILES: COc1cc(O)ccc1/C=C/C1=[N+](CCCCS(=O)(=O)[O-])c2ccccc2C1(C)C [MF52]
- ε at λmax ([2]; 25 mM HEPES pH 7.4, 1-24 μM): 70.1 mM⁻¹ cm⁻¹
- λmax ([2]; 25 mM HEPES pH 7.4, 1-24 μM): 529 nm

SMILES: COc1cc(/C=C/C2=[N+](CCCCS(=O)(=O)[O-])c3ccccc3C2(C)C)ccc1O [MF53]
- ε at λmax ([2]; 25 mM HEPES pH 7.4, 1-24 μM): 65.3 mM⁻¹ cm⁻¹
- λmax ([2]; 25 mM HEPES pH 7.4, 1-24 μM): 548 nm

SMILES: CC1(C)C(/C=C/c2ccc(O)c(S(=O)(=O)[O-])c2)=[N+](CCCCS(=O)(=O)O)c2ccccc21 [MF54]
- ε at λmax ([2]; 25 mM HEPES pH 7.4, 1-24 μM): 44.9 mM⁻¹ cm⁻¹
- λmax ([2]; 25 mM HEPES pH 7.4, 1-24 μM): 528 nm

SMILES: CC1(C)C(/C=C/c2ccc(O)c3ccccc23)=[N+](CCCCS(=O)(=O)[O-])c2ccccc21 [MF56]
- ε at λmax ([2]; 25 mM HEPES pH 7.4, 1-24 μM): 109.7 mM⁻¹ cm⁻¹
- λmax ([2]; 25 mM HEPES pH 7.4, 1-24 μM): 582 nm

SMILES: CC1(C)C(/C=C/c2ccc(O)c3ncccc23)=[N+](CCCCS(=O)(=O)[O-])c2ccccc21 [MF57]
- ε at λmax ([2]; 25 mM HEPES pH 7.4, 1-24 μM): 106.3 mM⁻¹ cm⁻¹
- λmax ([2]; 25 mM HEPES pH 7.4, 1-24 μM): 572 nm

SMILES: CC1(C)C(/C=C/c2ccc(O)cc2S(=O)(=O)[O-])=[N+](CCCCS(=O)(=O)O)c2ccccc21 [MF58]
- ε at λmax ([2]; 25 mM HEPES pH 7.4, 1-24 μM): 48.1 mM⁻¹ cm⁻¹
- λmax ([2]; 25 mM HEPES pH 7.4, 1-24 μM): 514 nm

SMILES: C=CC(=O)Oc1ccc(/C=C/C2=[N+](CCCCS(=O)(=O)[O-])c3ccccc3C2(C)C)c(OC)c1 [MF60]
- ε^Cys [3]: 67.8 mM⁻¹ cm⁻¹
- λ^Cys [3]: 529 nm
- SNR [3]: 14
- Hydrolysis @4° C. [4]: 9.8 ± 0.3%
- Hydrolysis @37° C. [4]: 41.8 ± 0.9%
- ε of long-wavelength band of probe [2]: 2.1 mM⁻¹ cm⁻¹
- ε of short-wavelength band(s) of probe [2]: 14.3 mM⁻¹ cm⁻¹
- λmax, long-wavelength band of probe [2]: 530 nm
- λmax, short-wavelength band(s) of probe [2]: 409 nm

SMILES: C=CC(=O)Oc1ccc(/C=C/C2=[N+](CCCCS(=O)(=O)[O-])c3ccccc3C2(C)C)cc1OC [MF61]
- ε^Cys [3]: 61.7 mM⁻¹ cm⁻¹
- λ^Cys [3]: 549 nm
- SNR [3]: 36
- Hydrolysis @4° C. [4]: 4.8 ± 0.1%
- Hydrolysis @37° C. [4]: 29.1 ± 1.9%
- ε of long-wavelength band of probe [2]: 0.4 mM⁻¹ cm⁻¹
- ε of short-wavelength band(s) of probe [2]: 20.4 mM⁻¹ cm⁻¹
- λmax, long-wavelength band of probe [2]: 548 nm
- λmax, short-wavelength band(s) of probe [2]: 397 nm

SMILES: C=CC(=O)Oc1ccc(/C=C/C2=[N+](CCCCS(=O)(=O)[O-])c3ccccc3C2(C)C)c2ccccc12 [MF62]
- ε^Cys [3]: 105.3 mM⁻¹ cm⁻¹
- λ^Cys [3]: 582 nm
- SNR [3]: 20
- Hydrolysis @4° C. [4]: 7.6 ± 0.5%
- Hydrolysis @37° C. [4]: 40.4 ± 0.6%
- ε of long-wavelength band of probe [2]: 1.5 mM⁻¹ cm⁻¹
- ε of short-wavelength band(s) of probe [2]: 8.5 mM⁻¹ cm⁻¹ and 7.7 mM⁻¹ cm⁻¹
- λmax, long-wavelength band of probe [2]: 582 nm
- λmax, short-wavelength band(s) of probe [2]: 419 nm and 287 nm

SMILES: C=CC(=O)Oc1ccc(/C=C/C2=[N+](CCCCS(=O)(=O)[O-])c3ccccc3C2(C)C)c2cccnc12 [MF63]
- ε^Cys [3]: 93.4 mM⁻¹ cm⁻¹
- λ^Cys [3]: 572 nm
- SNR [3]: 10
- Hydrolysis @4° C. [4]: 9.8 ± 1.5%
- Hydrolysis @37° C. [4]: 55.3 ± 0.7%
- ε of long-wavelength band of probe [2]: 2.9 mM⁻¹ cm⁻¹
- ε of short-wavelength band(s) of probe [2]: 14.0 mM⁻¹ cm⁻¹
- λmax, long-wavelength band of probe [2]: 572 nm
- λmax, short-wavelength band(s) of probe [2]: 397 nm

SMILES: C=CC(=O)Oc1ccc(/C=C/C2=[N+](CCCCS(=O)(=O)O)c3ccccc3C2(C)C)c(S(=O)(=O)[O-])c1 [MF64]
- ε^Cys [3]: 32.1 mM⁻¹ cm⁻¹
- λ^Cys [3]: 514 nm
- SNR [3]: 14
- Hydrolysis @4° C. [4]: 8.9 ± 0.2%
- Hydrolysis @37° C. [4]: 45.2 ± 1.4%
- ε of long-wavelength band of probe [2]: 0.7 mM⁻¹ cm⁻¹
- ε of short-wavelength band(s) of probe [2]: 8.0 mM⁻¹ cm⁻¹
- λmax, long-wavelength band of probe [2]: 514 nm
- λmax, short-wavelength band(s) of probe [2]: 350 nm

SMILES: Cc1cc(/C=C/C2=[N+](CCCS(=O)(=O)O)c3ccc(S(=O)(=O)[O-])cc3C2(C)C)cc(C)c1O [MF66]
- ε at λmax ([2]; 25 mM HEPES pH 7.4, 1-24 μM): 122.6 mM⁻¹ cm⁻¹
- λmax ([2]; 25 mM HEPES pH 7.4, 1-24 μM): 556 nm
- ε at λmax ([2]; same buffer at pH 8.0): 138.6 mM⁻¹ cm⁻¹
- λmax ([2]; same buffer at pH 8.0): 556 nm

SMILES: Cc1cc(/C=C/C2=[N+](C)c3ccccc3C2(C)C)cc(C)c1O [MF67]
- ε at λmax ([2]; 25 mM HEPES pH 7.4, 1-24 μM): 67.4 mM⁻¹ cm⁻¹
- λmax ([2]; 25 mM HEPES pH 7.4, 1-24 μM): 546 nm
- ε at λmax ([2]; same buffer at pH 8.0): 84.9 mM⁻¹ cm⁻¹
- λmax ([2]; same buffer at pH 8.0): 546 nm

SMILES: COc1cc(/C=C/C2=[N+](CCCCS(=O)(=O)[O-])c3ccccc3C2(C)C)cc(OC)c1O [MF68]
- ε at λmax ([2]; 25 mM HEPES pH 7.4, 1-24 μM): 70.0 mM⁻¹ cm⁻¹
- λmax ([2]; 25 mM HEPES pH 7.4, 1-24 μM): 575 nm

SMILES: C=CC(=O)Oc1ccc(/C=C/C2=[N+](C)c3ccccc3C2(C)C)cc1 [drawing 16]
- Spectra: Probe [1]: 384 nm
- Spectra: With Cys [1]: 512 nm
